Experiments:
[1] = system: NVAF patients; assay: Late phase-II trial targeting NVAF patient in Japan (thromboembolic and bleeding events, 12 weeks); type: in vivo, human; conditions: for Bleeding events, subjects with event/subjects / Incidence of bleeding events (major, clinically relevant non-major and minor bleeding in total): all subjects
[2] = system: patients with moderate to-high-risk atrial fibrillation; assay: ENGAGE-AF TIMI-48 phase 3 study of edoxaban versus warfarin in atrial fibrillation
[3] = 30 mg×1/day, 12 weeks, 30 ≦ CLCR < 50 mL/min
[4] = 30 mg×1/day, 12 weeks, 50 ≦ CLCR ≦ 80 mL/min
[5] = 30 mg×1/day, 12 weeks, 80 < CLCR mL/min
[6] = 45 mg×1/day, 12 weeks, 30 ≦ CLCR < 50 mL/min
[7] = 45 mg×1/day, 12 weeks, 50 ≦ CLCR ≦ 80 mL/min
[8] = 45 mg×1/day, 12 weeks, 80 < CLCR mL/min
[9] = 60 mg×1/day, 12 weeks, 30 ≦ CLCR < 50 mL/min
[10] = 60 mg×1/day, 12 weeks, 50 ≦ CLCR ≦ 80 mL/min
[11] = 60 mg×1/day, 12 weeks, 80 < CLCR mL/min
[12] = 60 mg×1/day, 12 weeks, CLCR < 30 mL/min
[13] = each edoxaban group (30, 45, 60 mg) vs warfarin group
[14] = high-dose edoxaban (60 mg once daily, halved per criteria)
[15] = low-dose edoxaban (30 mg once daily, halved per criteria)
[16] = subgroup whose CLCR had become <30 mL/min during the trial, edoxaban 15 mg (N = 349), warfarin dose adjusted (N = 367)

For CN1CCc2nc(C(=O)N[C@@H]3C[C@@H](C(=O)N(C)C)CC[C@@H]3NC(=O)C(=O)Nc3ccc(Cl)cn3)sc2C1 [edoxaban, N^1-(5-chloropyridin-2-yl)-N^2-((1S,2R,4S)-4-[(dimethylamino)carbonyl]-2-{[(5-methyl-4,5,6,7-tetrahydrothiazolo[5,4-c]pyridin-2-yl)carbonyl]amino}cyclohexyl)ethanediamide], the “Bleeding event (major, clinically relevant non-major and minor in total), subjects with event/subjects” value [1, 3] was “(3/15)”, the “Incidence of bleeding event (major, clinically relevant non-major and minor bleeding in total)” value [1, 3] was 20.0% and the “Incidence of major bleeding or clinically relevant non-major bleeding” value [1, 3] was 6.7%. For the same compound, the “Major bleeding or clinically relevant non-major bleeding, subjects with event/subjects” value [1, 3] was “(1/15)”, the “Bleeding event (major, clinically relevant non-major and minor in total), subjects with event/subjects” value [1, 4] was “(14/69)” and the “Incidence of bleeding event (major, clinically relevant non-major and minor bleeding in total)” value [1, 4] was 20.3%. The “Incidence of major bleeding or clinically relevant non-major bleeding” value [1, 4] was 1.4%, the “Major bleeding or clinically relevant non-major bleeding, subjects with event/subjects” value [1, 4] was “(1/69)” and the “Bleeding event (major, clinically relevant non-major and minor in total), subjects with event/subjects” value [1, 5] was “(7/46)”. The “Incidence of bleeding event (major, clinically relevant non-major and minor bleeding in total)” value [1, 5] was 15.2%, the “Incidence of major bleeding or clinically relevant non-major bleeding” value [1, 5] was 0% and the “Major bleeding or clinically relevant non-major bleeding, subjects with event/subjects” value [1, 5] was “(0/46)”. For the same compound, the “Bleeding event (major, clinically relevant non-major and minor in total), subjects with event/subjects” value [1, 6] was “(6/21)”, the “Incidence of bleeding event (major, clinically relevant non-major and minor bleeding in total)” value [1, 6] was 28.6% and the “Incidence of major bleeding or clinically relevant non-major bleeding” value [1, 6] was 9.5%. The “Major bleeding or clinically relevant non-major bleeding, subjects with event/subjects” value [1, 6] was “(2/21)”, the “Bleeding event (major, clinically relevant non-major and minor in total), subjects with event/subjects” value [1, 7] was “(19/72)” and the “Incidence of bleeding event (major, clinically relevant non-major and minor bleeding in total)” value [1, 7] was 26.4%. The “Incidence of major bleeding or clinically relevant non-major bleeding” value [1, 7] was 4.2%, the “Major bleeding or clinically relevant non-major bleeding, subjects with event/subjects” value [1, 7] was “(3/72)” and the “Bleeding event (major, clinically relevant non-major and minor in total), subjects with event/subjects” value [1, 8] was “(5/41)”. The “Incidence of bleeding event (major, clinically relevant non-major and minor bleeding in total)” value [1, 8] was 12.2%, the “Incidence of major bleeding or clinically relevant non-major bleeding” value [1, 8] was 4.9% and the “Major bleeding or clinically relevant non-major bleeding, subjects with event/subjects” value [1, 8] was “(2/41)”. The “Bleeding event (major, clinically relevant non-major and minor in total), subjects with event/subjects” value [1, 9] was “(4/15)”, the “Incidence of bleeding event (major, clinically relevant non-major and minor bleeding in total)” value [1, 9] was 26.7% and the “Incidence of major bleeding or clinically relevant non-major bleeding” value [1, 9] was 0%. For the same compound, the “Major bleeding or clinically relevant non-major bleeding, subjects with event/subjects” value [1, 9] was “(0/15)”, the “Bleeding event (major, clinically relevant non-major and minor in total), subjects with event/subjects” value [1, 10] was “(21/68)” and the “Incidence of bleeding event (major, clinically relevant non-major and minor bleeding in total)” value [1, 10] was 30.9%. The “Incidence of major bleeding or clinically relevant non-major bleeding” value [1, 10] was 10.3%, the “Major bleeding or clinically relevant non-major bleeding, subjects with event/subjects” value [1, 10] was “(7/68)” and the “Bleeding event (major, clinically relevant non-major and minor in total), subjects with event/subjects” value [1, 11] was “(10/46)”. The “Incidence of bleeding event (major, clinically relevant non-major and minor bleeding in total)” value [1, 11] was 21.7%, the “Incidence of major bleeding or clinically relevant non-major bleeding” value [1, 11] was 0% and the “Major bleeding or clinically relevant non-major bleeding, subjects with event/subjects” value [1, 11] was “(0/46)”. The “Bleeding event (major, clinically relevant non-major and minor in total), subjects with event/subjects” value [1, 12] was “(1/1)”, the “Incidence of bleeding event (major, clinically relevant non-major and minor bleeding in total)” value [1, 12] was 100.0% and the “Incidence of major bleeding or clinically relevant non-major bleeding” value [1, 12] was 0%. For the same compound, the “Major bleeding or clinically relevant non-major bleeding, subjects with event/subjects” value [1, 12] was “(0/1)”, the “Incidence of bleeding events compared with the warfarin group” value [1, 13] was “No statistically significant difference” and the “Incidence of major bleeding, or of major bleeding or clinically relevant non-major bleeding, compared with the warfarin group” value [1, 13] was “not statistically significantly different”. For the same compound, the “Bleeding events, subjects with event/subjects” value ([1]; edoxaban 30 mg group, 12 weeks) was 24/130, the “Incidence of bleeding events (major, clinically relevant non-major and minor bleeding in total)” value ([1]; edoxaban 30 mg group, 12 weeks) was 18.5% and the “Major bleeding, incidence” value ([1]; edoxaban 45 mg group, 12 weeks) was 2.2%. The “Major bleeding, number of subjects” value ([1]; edoxaban 45 mg group, 12 weeks) was 3 subjects, the “Bleeding events, subjects with event/subjects” value ([1]; edoxaban 45 mg group, 12 weeks) was 30/134 and the “Incidence of bleeding events (major, clinically relevant non-major and minor bleeding in total)” value ([1]; edoxaban 45 mg group, 12 weeks) was 22.4%. For the same compound, the Thromboembolic events ([1]; edoxaban 45 mg group, 12 weeks, the only thromboembolic event of the trial) was “one cerebral infarction”, the “Major bleeding, incidence” value ([1]; edoxaban 60 mg group, 12 weeks) was 1.5% and the “Major bleeding, number of subjects” value ([1]; edoxaban 60 mg group, 12 weeks) was 2 subjects. The “Bleeding events, subjects with event/subjects” value ([1]; edoxaban 60 mg group, 12 weeks) was 36/130, the “Incidence of bleeding events (major, clinically relevant non-major and minor bleeding in total)” value ([1]; edoxaban 60 mg group, 12 weeks) was 27.7% and the “Efficacy, safety and composite primary endpoint comprising ACM compared with warfarin” value ([2]; 15 mg dose regimen of edoxaban, subgroup CLCR <30 mL/min) was “noninferior to warfarin”. For the same compound, the “Prevention of stroke or systemic embolism compared with warfarin” value ([2]; both once-daily regimens of edoxaban) was “noninferior to warfarin”, the “Hazard ratio vs warfarin, death from cardiovascular causes” value ([2]; high-dose edoxaban) was 0.86 and the “Hazard ratio vs warfarin, key secondary end point” value ([2]; high-dose edoxaban) was 0.87. For the same compound, the “Hazard ratio vs warfarin, major bleeding” value ([2]; high-dose edoxaban) was 0.80, the “Hazard ratio vs warfarin, primary end point during treatment” value ([2]; high-dose edoxaban) was 0.79 and the “Hazard ratio vs warfarin, primary end point, intention-to-treat analysis” value ([2]; high-dose edoxaban) was 0.87. The “Annualized rate of death from cardiovascular causes” value [2, 14] was 2.74%, the “Annualized rate of major bleeding” value [2, 14] was 2.75% and the “Annualized rate of the primary end point (stroke or systemic embolism) during treatment” value [2, 14] was 1.18%. The “Rate of the key secondary end point (composite of stroke, systemic embolism, or death from cardiovascular causes)” value [2, 14] was 3.85%, the “Hazard ratio vs warfarin, death from cardiovascular causes” value ([2]; low-dose edoxaban) was 0.85 and the “Hazard ratio vs warfarin, key secondary end point” value ([2]; low-dose edoxaban) was 0.95. For the same compound, the “Hazard ratio vs warfarin, major bleeding” value ([2]; low-dose edoxaban) was 0.47, the “Hazard ratio vs warfarin, primary end point during treatment” value ([2]; low-dose edoxaban) was 1.07 and the “Hazard ratio vs warfarin, primary end point, intention-to-treat analysis” value ([2]; low-dose edoxaban) was 1.13. For the same compound, the “Annualized rate of death from cardiovascular causes” value [2, 15] was 2.71%, the “Annualized rate of major bleeding” value [2, 15] was 1.61% and the “Annualized rate of the primary end point (stroke or systemic embolism) during treatment” value [2, 15] was 1.61%. The “Rate of the key secondary end point (composite of stroke, systemic embolism, or death from cardiovascular causes)” value [2, 15] was 4.23%, the “ACM (all cause mortality): # of events” value [2, 16] was 12 and the “ACM (all cause mortality): Event Rate” value [2, 16] was 1.95 %/yr. For the same compound, the “Disabling Stroke: # of events” value [2, 16] was 3 and the “Disabling Stroke: Event Rate” value [2, 16] was 0.49 %/yr.

— US20140371262A1, “PREVENTIVE AND/OR THERAPEUTIC AGENT FOR THROMBOEMBOLISM IN THROMBOEMBOLISM PATIENT WITH SEVERE RENAL IMPAIRMENT” (Daiichi Sankyo Company, Limited, priority 2011, published 2014)
